Our source for the TGI and GI50 values is PubChem BioAssay (NCI).

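Compound exposure: 48 hours, 5 concentrations, 96-well plates. GI50 = concentration required for 50% inhibition of growth. Definition used: TGI = concentration required for complete inhibition of growth.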

Among the test systems are SK-OV-3 ovarian; UACC-62 melanoma; HS 578T breast; M14 melanoma; MCF7 breast; HT29 colon; SN12C renal; MDA-MB-231 breast; SNB-19 CNS; RPMI-8226 leukemia.
Experiment in all cases: NCI tumour cell line growth inhibition, 48 h

In the case of `C/C(=N\N=C(/[Se])N1CC2CCC(CC2)C1)c1ccccn1`, the TGI is 2.09 µM in the assay with SK-OV-3 ovarian; 0.711 µM in the assay on UACC-62 melanoma; 7.77 µM in the assay on HS 578T breast; 0.701 µM in the assay on M14 melanoma; 2.8 µM with MCF7 breast; 2.6 µM with HT29 colon. Further, the TGI in the assay with SN12C renal worked out at 2.57 µM; with MDA-MB-231 breast it was 2.65 µM; in the assay on SNB-19 CNS it was 4.06 µM; in the assay on RPMI-8226 leukemia, 0.22 µM.

With `O=C(O)c1cc2cc(OCc3ccccc3)c(OCc3ccccc3)cc2[nH]1`, the GI50 with SK-OV-3 ovarian is 29.5 µM; with UACC-62 melanoma it was 17.5 µM; with HS 578T breast, 22 µM; in the assay on M14 melanoma it was 24.2 µM; in the assay on MCF7 breast, 21.8 µM; in the assay with HT29 colon, 29.5 µM. The GI50 in the assay on SN12C renal was 33.1 µM; in the assay on MDA-MB-231 breast it was 28.2 µM; in the assay on SNB-19 CNS it was 32.1 µM; in the assay on RPMI-8226 leukemia, 23 µM. The TGI was more than 100 µM in the assay on SK-OV-3 ovarian; 34.5 µM in the assay on UACC-62 melanoma; 64.5 µM in the assay with HS 578T breast; 60.8 µM in the assay with M14 melanoma; 55.1 µM in the assay on MCF7 breast; 59.6 µM with HT29 colon. The TGI is more than 100 µM in the assay on SN12C renal, 79 µM in the assay with MDA-MB-231 breast, more than 100 µM in the assay with SNB-19 CNS and 68.4 µM with RPMI-8226 leukemia.

With `O=C(O)c1ccc(N/C=C2\C(=O)c3ccccc3OC2O)cc1O` (configuration not stated), the GI50 was 28.8 µg/mL with SK-OV-3 ovarian; 17.4 µg/mL with UACC-62 melanoma; 11.2 µg/mL in the assay on HS 578T breast; 21.5 µg/mL in the assay with M14 melanoma; 12.6 µg/mL with MCF7 breast; 29.7 µg/mL in the assay with HT29 colon. Moreover, the GI50 with SN12C renal is 20.2 µg/mL; in the assay with MDA-MB-231 breast, 22 µg/mL; in the assay on SNB-19 CNS, 18.4 µg/mL; in the assay with RPMI-8226 leukemia it was 2.45 µg/mL. Also, the TGI amounted to 74.6 µg/mL in the assay on SK-OV-3 ovarian; 52.4 µg/mL with UACC-62 melanoma; 76.5 µg/mL in the assay with HS 578T breast; 47.5 µg/mL in the assay with M14 melanoma; 81.8 µg/mL in the assay with MCF7 breast; 83.2 µg/mL with HT29 colon. For the same compound, the TGI with SN12C renal was found to be 58.8 µg/mL; with MDA-MB-231 breast, 54.6 µg/mL; in the assay with SNB-19 CNS, 72.4 µg/mL; in the assay on RPMI-8226 leukemia, 8.67 µg/mL.

Turning to `COc1cccc2c1C(=O)c1c(O)c3c(c(O)c1C2=O)C[C@@](O)(C(=O)CO)C[C@@H]3OC1C[C@H](N)[C@H](O)[C@H](C)O1` (some centres not stated), the GI50 in the assay on SK-OV-3 ovarian was 0.107 µM; in the assay with UACC-62 melanoma, 0.0346 µM; in the assay with HS 578T breast, 0.132 µM; in the assay on M14 melanoma it was 0.0846 µM; with MCF7 breast it was 0.00926 µM; with HT29 colon, 0.0958 µM. The GI50 in the assay with SN12C renal was 0.0253 µM; in the assay with MDA-MB-231 breast, 0.144 µM; in the assay with SNB-19 CNS, 0.0246 µM; with RPMI-8226 leukemia, 0.0909 µM. Besides, the TGI with SK-OV-3 ovarian was 10.9 µM; with UACC-62 melanoma, 0.117 µM; in the assay with M14 melanoma, 0.404 µM; in the assay on MCF7 breast, 4.15 µM; in the assay with SN12C renal, 7.44 µM; in the assay with MDA-MB-231 breast it was 5.41 µM. In addition, the TGI in the assay on SNB-19 CNS amounted to 6.33 µM; in the assay on RPMI-8226 leukemia it was 1.28 µM.

With `COc1ccc(Cl)cc1NC(=O)C(Br)C(Br)C(=O)O` (configuration not stated), the GI50 was more than 100 µM with SK-OV-3 ovarian; 2.81 µM with UACC-62 melanoma; 43.9 µM in the assay with HS 578T breast; 14.9 µM in the assay on M14 melanoma; 3.23 µM in the assay on MCF7 breast; 25.6 µM with HT29 colon. Also, the GI50 with SN12C renal was 4.02 µM; in the assay with MDA-MB-231 breast, 9.23 µM; with SNB-19 CNS, 27.9 µM; with RPMI-8226 leukemia it was 17.7 µM. Besides, the TGI was more than 100 µM with SK-OV-3 ovarian; 8.93 µM in the assay with UACC-62 melanoma; more than 100 µM in the assay with HS 578T breast; 34.9 µM with M14 melanoma; more than 47.9 µM with MCF7 breast; more than 68.3 µM in the assay with HT29 colon. Moreover, the TGI in the assay on SN12C renal was 18.4 µM; in the assay on MDA-MB-231 breast, 26 µM; with SNB-19 CNS it was more than 68.7 µM; in the assay on RPMI-8226 leukemia it was more than 91.7 µM.

For the compound `CO[C@@H]1/C=C(C)/C=C/[C@@H](C)/C=C(\C)C(=O)OC(/C(C)=C/C=C(\C)CNC(=O)[C@H](CO)NC=O)[C@@H](C)/C=C/C=C/[C@H](OC)CC/C=C(C)/C=C/C1` (some centres not stated), the GI50 in the assay on SK-OV-3 ovarian was 0.332 µM; with UACC-62 melanoma, less than 0.005 µM; in the assay with HS 578T breast, less than 0.005 µM; in the assay with M14 melanoma, less than 0.005 µM; in the assay with MCF7 breast, less than 0.005 µM; in the assay on HT29 colon, less than 0.005 µM. Also, the GI50 is 0.182 µM in the assay with SN12C renal, 0.292 µM with MDA-MB-231 breast, 0.303 µM in the assay on SNB-19 CNS and less than 0.005 µM with RPMI-8226 leukemia. In addition, the TGI in the assay with SK-OV-3 ovarian is 9.48 µM; in the assay with UACC-62 melanoma, less than 0.005 µM; with HS 578T breast it was 24.9 µM; in the assay on M14 melanoma it was less than 0.005 µM; with MCF7 breast, 9.14 µM; with HT29 colon, more than 50 µM. Also, the TGI was 12.2 µM in the assay with SN12C renal, 9.12 µM with SNB-19 CNS and 11.8 µM in the assay on RPMI-8226 leukemia.

With `O=C(c1ccco1)c1c(C(F)(F)F)n([O-])c2ccccc2[n+]1=O`, the GI50 with SK-OV-3 ovarian was 6.69 µM; in the assay on UACC-62 melanoma, 0.536 µM; in the assay with HS 578T breast, 1.75 µM; in the assay with M14 melanoma, 0.613 µM; in the assay with MCF7 breast, 0.458 µM; in the assay with HT29 colon it was 4.2 µM. In addition, the GI50 in the assay on SN12C renal was 0.618 µM; with MDA-MB-231 breast, 0.772 µM; in the assay with SNB-19 CNS it was 3.34 µM; in the assay on RPMI-8226 leukemia it was 0.227 µM. In addition, the TGI was found to be 21 µM in the assay with SK-OV-3 ovarian; 2.61 µM in the assay on UACC-62 melanoma; 13.1 µM with HS 578T breast; 1.91 µM with M14 melanoma; 7.36 µM in the assay on MCF7 breast; 50 µM in the assay on HT29 colon. For the same compound, the TGI in the assay on SN12C renal turned out to be 3.1 µM; in the assay with MDA-MB-231 breast, 3.6 µM; in the assay with SNB-19 CNS, 22.3 µM; in the assay with RPMI-8226 leukemia, 1.27 µM.

In the case of `Cc1cc(Cc2cc(C)cc(C(C)(C)C)c2O)c(O)c(C(C)(C)C)c1`, the GI50 was 11.9 µM in the assay with SK-OV-3 ovarian; 10.4 µM in the assay on UACC-62 melanoma; 11.2 µM with HS 578T breast; 11.1 µM in the assay with M14 melanoma; 3.47 µM in the assay with MCF7 breast; 4.58 µM in the assay with HT29 colon. For the same compound, the GI50 was 11.9 µM in the assay with SN12C renal, 9.83 µM in the assay on MDA-MB-231 breast, 13.1 µM in the assay with SNB-19 CNS and 7.55 µM in the assay with RPMI-8226 leukemia. Moreover, the TGI with SK-OV-3 ovarian came out at 24.2 µM; in the assay with UACC-62 melanoma, 22.2 µM; in the assay with HS 578T breast it was 29.2 µM; with M14 melanoma, 23 µM; in the assay with MCF7 breast, 12.7 µM; with HT29 colon, 15.6 µM. Further, the TGI was 24.1 µM in the assay on SN12C renal, 21.7 µM in the assay on MDA-MB-231 breast, 25.8 µM in the assay with SNB-19 CNS and 57.2 µM with RPMI-8226 leukemia.
